{"source": "patent US20230026360A1", "about": "“DETECTION OF MOLECULAR INTERACTIONS” (Orionis Biosciences, Inc., priority 2019, published 2023)", "type_in_all_cases": "cell-based", "key": {"CRBN-IKZF1 interaction": {"target": "T1, CRBN-IKZF1 interaction (Homo sapiens, UniProt Q96SW2)", "T1 construct": "expressed in transfected cells; host or cells: HEK293T", "T1 sequence (Q96SW2 whole entry, the tested form may be a part, canonical isoform)": "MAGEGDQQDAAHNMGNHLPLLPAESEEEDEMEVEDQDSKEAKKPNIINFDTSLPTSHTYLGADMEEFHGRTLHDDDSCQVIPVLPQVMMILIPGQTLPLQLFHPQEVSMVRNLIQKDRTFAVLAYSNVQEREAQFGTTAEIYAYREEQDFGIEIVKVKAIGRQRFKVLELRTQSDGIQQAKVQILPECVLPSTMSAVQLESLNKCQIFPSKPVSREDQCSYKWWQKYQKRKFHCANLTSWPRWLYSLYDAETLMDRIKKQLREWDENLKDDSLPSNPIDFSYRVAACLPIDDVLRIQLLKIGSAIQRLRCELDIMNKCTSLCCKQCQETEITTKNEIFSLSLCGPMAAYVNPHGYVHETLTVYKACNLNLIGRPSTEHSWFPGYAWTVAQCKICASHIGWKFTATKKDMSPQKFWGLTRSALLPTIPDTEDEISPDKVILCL", "T1 sequence (Q13422 1-477 isoform Q13422-7 partner)": "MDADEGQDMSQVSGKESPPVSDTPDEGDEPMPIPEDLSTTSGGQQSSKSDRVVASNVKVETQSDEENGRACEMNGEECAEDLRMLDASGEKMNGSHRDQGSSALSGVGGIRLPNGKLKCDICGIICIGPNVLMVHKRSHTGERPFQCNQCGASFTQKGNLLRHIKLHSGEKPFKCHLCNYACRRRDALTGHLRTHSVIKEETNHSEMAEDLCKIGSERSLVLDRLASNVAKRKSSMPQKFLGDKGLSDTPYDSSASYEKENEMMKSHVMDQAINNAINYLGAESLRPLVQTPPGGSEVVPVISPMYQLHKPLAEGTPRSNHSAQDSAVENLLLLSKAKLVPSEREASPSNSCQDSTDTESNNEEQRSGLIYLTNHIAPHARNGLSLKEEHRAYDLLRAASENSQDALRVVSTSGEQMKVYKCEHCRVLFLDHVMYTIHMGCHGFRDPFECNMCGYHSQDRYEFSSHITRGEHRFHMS", "test": "MAPPIT forward assay, CRBN receptor fusion + IKZF1 gp130 fusion", "conditions": "forward configuration; HEK293T cells; EPO; dose-response; IKZF1 isoform 7", "excerpt": "(§1) The traditional MAPPIT assay has been used to monitor protein-protein interactions. A bait protein (protein A) is expressed as a fusion protein in which it is genetically fused to an engineered intracellular receptor domain of the leptin receptor, which is itself fused to the extracellular domain of the erythropoietin (Epo) receptor. Binding of Epo ligand to the Epo receptor component results in activation of receptor-associated intracellular JAK2. However, activated JAK2 cannot activate the leptin receptor to trigger STAT3 binding and its phosphorylation because its tyrosine residues, normally phosphorylated by activated JAK2, have been mutated. […] Activation of STAT3 can be monitored by introduction of a STAT3-responsive reporter gene, including a luciferase-encoding gene or a gene encoding a fluorescent marker such as GFP or some other type of Fluorescent Protein (EGFP etc.). […]\n(§2) Full size proteins were fused for each of the target/prey proteins tested, except in the case of IKZF1 where isoform 7 was used. […] Luciferase activity was measured 24 hours after test compound treatment using the Luciferase Assay System kit (PROMEGA, Madison, Wis.) with an Ensight plate reader (PERKIN ELMER LIFE SCIENCES, Waltham, Mass.). […]"}, "[1]": {"tested_on": "CRBN and human ORF(eome) cDNA library targets", "test": "Inverse MAPPIT cell microarray ORF cDNA library screen with CRBN bait", "conditions": "HEK293T", "protocol": "In order to identify ligand-induced CRBN substrates, or neosubstrates, a MAPPIT cell microarray screen was performed using the procedure described in Lievens, et al. “Proteome-scale binary interactomics in human cells.” Molecular & Cellular Proteomics 15.12 (2016): 3624-3639. In brief, HEK293T cells were transfected with a CRBN bait expression plasmid encoding a gp130-CRBN fusion construct. These transfected cells were then added to microarray screening plates containing a MAPPIT chimeric membrane receptor fusion expression plasmid collection covering over 15,000 ORFs. Each spot in the microarray contained a different chimeric receptor-ORF fusion expression plasmid, as well as a STAT3-responsive fluorescence protein-encoding reporter plasmid. Gp130-CRBN bait transfected cells landing and attaching on these spots therefore become transfected as well with the receptor-ORF prey plasmid and the reporter plasmid, resulting in a different CRBN-ORF combination being tested in the cells on every different microarray spot. Twenty-four hours after transfection cells were differentially stimulated with erythropoietin with and without the CRBN ligand CC-220 (1 μM final concentration), and reporter signal (GFP-like fluorescence reporter) was read out 48 hours later."}, "CRBN-IKZF2 interaction [2]": {"target": "T2, CRBN-IKZF2 interaction (Homo sapiens, UniProt Q96SW2)", "test": "MAPPIT inverse assay, CRBN gp130 fusion + IKZF2 receptor fusion", "set-up": "expressed in transfected cells; host or cells: HEK293T", "conditions": "inverse configuration; HEK293T cells; EPO; dose-response", "excerpt": "as §1, §2"}, "[3]": {"target": "CRBN-CSNK1A (CK1a) interaction (Homo sapiens, UniProt Q96SW2)", "sequence (Q96SW2 whole entry, the tested form may be a part)": "as the sequence (Q96SW2 whole entry, the tested form may be a part, canonical isoform) above", "sequence (P48729 whole entry partner, the tested form may be a part)": "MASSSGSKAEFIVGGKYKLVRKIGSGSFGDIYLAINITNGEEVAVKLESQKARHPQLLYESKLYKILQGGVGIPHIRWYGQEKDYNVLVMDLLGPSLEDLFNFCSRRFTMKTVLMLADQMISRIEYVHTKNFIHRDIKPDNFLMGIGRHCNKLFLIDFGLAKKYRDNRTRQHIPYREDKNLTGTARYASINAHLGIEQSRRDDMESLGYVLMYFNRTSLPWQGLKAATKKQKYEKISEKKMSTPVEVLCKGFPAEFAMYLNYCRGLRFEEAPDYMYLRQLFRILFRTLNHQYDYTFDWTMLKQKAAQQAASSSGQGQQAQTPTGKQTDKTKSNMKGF", "test": "MAPPIT inverse assay, CRBN gp130 fusion + CSNK1A1 receptor fusion", "set-up": "expressed in transfected cells; host or cells: HEK293T", "conditions": "inverse configuration; HEK293T cells; EPO; dose-response", "excerpt": "as §1, §2"}, "CRBN-IKZF3 interaction": {"target": "CRBN-IKZF3 interaction (Homo sapiens, UniProt Q96SW2)", "sequence (Q96SW2 whole entry, the tested form may be a part)": "as the sequence (Q96SW2 whole entry, the tested form may be a part, canonical isoform) above", "test": "MAPPIT forward assay, CRBN receptor fusion + IKZF3 gp130 fusion", "set-up": "MAPPIT chimeric receptor (EPO receptor extracellular domain + signaling-deficient leptin receptor part); expressed in transfected cells; host or cells: HEK293T", "conditions": "forward configuration; HEK293T cells; EPO; dose-response", "excerpt": "as §1, §2"}, "CRBN-IKZF2 interaction [4]": {"target": "T2, CRBN-IKZF2 interaction", "test": "MAPPIT forward assay, CRBN receptor fusion + IKZF2 gp130 fusion", "set-up": "MAPPIT chimeric receptor (EPO receptor extracellular domain + signaling-deficient leptin receptor part); expressed in transfected cells; host or cells: HEK293T", "conditions": "forward configuration; HEK293T cells; EPO; dose-response", "excerpt": "as §1, §2"}, "CRBN-ZFP91 interaction": {"target": "CRBN-ZFP91 interaction (Homo sapiens, UniProt Q96SW2)", "sequence (Q96SW2 whole entry, the tested form may be a part)": "as the sequence (Q96SW2 whole entry, the tested form may be a part, canonical isoform) above", "test": "MAPPIT forward assay, CRBN receptor fusion + ZFP91 gp130 fusion", "set-up": "MAPPIT chimeric receptor (EPO receptor extracellular domain + signaling-deficient leptin receptor part); expressed in transfected cells; host or cells: HEK293T", "conditions": "forward configuration; HEK293T cells; EPO; dose-response", "excerpt": "as §1, §2"}}, "note": "Entries after “also recorded” stand apart in the source; their conditions may differ."}
{"smiles": "O=C1CC[C@H](N2Cc3c(OCc4ccc(CN5CCOCC5)cc4)cccc3C2=O)C(=O)N1", "note": "[CC-220]", "values": [{"measurement": "compound-induced binding of IKZF1 to CRBN (luciferase reporter signal)", "setting": "CRBN-IKZF1 interaction", "value": "can be detected with both the forward and the inverse assay configuration"}, {"measurement": "induction of fluorescence reporter signal in ORF cDNA cell microarray screen", "setting": "[1]; CC-220 1 μM final concentration, over 15,000 ORFs, erythropoietin", "value": "a significant induction of signal is observed for a number of ORF cDNAs"}, {"measurement": "dose-response confirmation of binding of three ORF hits to CRBN", "setting": "[1]; inverse MAPPIT luciferase assay, EPO", "value": "dose-dependent binding to CRBN"}, {"measurement": "compound-induced binding of IKZF2 to CRBN (luciferase reporter signal)", "setting": "CRBN-IKZF2 interaction [2]", "value": "an interaction signal response could be detected"}, {"measurement": "compound-induced binding of CSNK1A (CK1a) to CRBN (luciferase reporter signal)", "setting": "[3]", "value": "an interaction signal response could be detected; also recorded: specific signal in the inverse"}, {"measurement": "compound-induced binding of IKZF3 to CRBN (luciferase reporter signal)", "setting": "CRBN-IKZF3 interaction", "value": "only in the inverse assay setup an interaction signal response could be detected"}, {"measurement": "compound-induced binding of IKZF2 to CRBN (luciferase reporter signal)", "setting": "CRBN-IKZF2 interaction [4]", "value": "only in the inverse assay setup an interaction signal response could be detected"}, {"measurement": "compound-induced binding of ZFP91 to CRBN (luciferase reporter signal)", "setting": "CRBN-ZFP91 interaction", "value": "only in the inverse assay setup an interaction signal response could be detected"}]}
